Test [1] concerns the target T1, Cav2.3 (Homo sapiens, UniProt Q15878). Description: Whole-cell patch clamp assay (QPatch) in HEK-293 T-Rex/Kir2.1/Cav2.3e-β4-α2δ1 cells. Type of test: cell-based. To be noted: QPatch 16X, room temperature, mean ± S.E, read-out: Cav2.3 (pIC50) (converted). Here is the method: HEK-293 T-Rex/Kir2.1/Cav2.3e-β4-α2δ1 cells were seeded 96 hours before experiment and doxycycline at 0.2 μg/mL was added 24 hours before experiment. Just before the experiments cells were washed twice with D-PBS w/o Ca^2+/Mg^2+ and gently detached from the flask with Detachin. Cells were then re-suspended in the suspension solution (25 mL EX-CELL ACF CHO medium; 0.25 mL of 100× Penicillin/Streptomycin) and placed on the Automated Patch-clamp platform (QPatch 16X).
Standard whole-cell voltage clamp experiments were performed at room temperature using the single hole technology and the following intracellular and extracellular solutions (ICS and ECS, respectively) were used. ICS (mM): CsF 60, CsCl 50, NaCl 10, EGTA 20, BAPTA 5, HEPES 10, NaGTP 0.3, MgATP 5 (pH 7.2; ECS (mM): NMDG-Cl 120, BaCl2 20, HEPES 10, EGTA 7 (pH 7.4). After establishment of the seal and the passage in the whole-cell configuration, the Cav2.3 dependent current was evoked by challenging the cells with the following voltage protocol: the plasma membrane was held at −80 mV then a 50 ms-long depolarizing pulse at 0 mV, followed by a 50 ms-long hyperpolarizing pulse at −100 mV were applied and finally the plasma membrane was held back to −80 mV. This voltage protocol was applied every 10 seconds. Cav2.3 dependent current was first measured in control condition (vehicle, 0.1% DMSO), in the presence of increasing concentration of the compound under investigation and finally SNX 482 was added to fully block any R-type Cav2.3 dependent current.
For data collection, the Sophion proprietary software was used while the analysis was performed off-line using Excel and GraphPad Prism. The inward current (Area Under Curve) measured during each depolarizing pulse was normalized to cell membrane capacitance (Cm) to obtain the average inward current density in each condition (control, compound under investigation and SNX 482). Then, the inhibitory effect of the compound under investigation was evaluated as % of the remaining inward current, normalized to the internal control. […] All data were expressed as mean±S.E
A general note: Patch clamp records ionic current or voltage across a cell membrane.

In test [2] the target is T1, Cav2.3. Description: Human Cav2.3 channel calcium-influx assay. The format is cell-based. To be noted: Fluo8 fluorescence, HEK-293 T-Rex/Kir2.1/Cav2.3e cells, without pluronic acid, read-out: Cav2.3 (pIC50) (converted). The procedure, abridged: (§1)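 HEK-293 T-Rex/Kir2.1 cells with doxycycline (0.2 μg/mL)-inducible Cav2.3e plus Cavβ4-α2δ1, loaded with Fluo8 NW in 0 mM K+ Tyrode's. Compounds (8 points, top 30 μM, half-log, 0.3% final DMSO, n=4) preincubated 3 min at RT, then depolarized with 20 mM KCl/2 mM CaCl2 (final); fluorescence read 130 s.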

The next test deals with Human Cav2.3 channel. The test can be described thus: Human Cav2.3 channel calcium-influx assay. The format is cell-based. Conditions: Fluo8 fluorescence, HEK-293 T-Rex/Kir2.1/Cav2.3e cells, without pluronic acid. In short, it runs like this:
as §1

In another test the test system is MES model of epilepsy. Description: Maximal electroshock stimulation model (MES) in mouse. The format is in vivo. Conditions: 1.5 mg/kg, oral administration. How it is done: Compounds of the invention were tested in an in vivo model of epilepsy, the MES model in mouse, according to the method described in Kehne et al, Neurochemistry Research 42:1894-1903 (2017) 1 https://doi.org/10.1007/s11064-017-2275-z.

In test [3] the target is R-type calcium current in substantia nigra dopamine neurons (Mus musculus (Mouse), UniProt Q61290). Description: Ex vivo whole cell patch clamp in substantia nigra dopamine neurons, mouse brain slice. The format is cell-based. To be noted: concentrations of 10 μM. Here is the method: Compounds of the invention were tested on R-type calcium current with whole cell patch clamp electrophysiology in substantia nigra dopamine neurons in an ex vivo brain slice preparation according to the methods described in Siller et al., Elife, 11:e67464 (2022) https://doi.org/i0.7554/eLife.67464.
Sequence of R-type calcium current in substantia nigra dopamine neurons (Q61290 whole entry): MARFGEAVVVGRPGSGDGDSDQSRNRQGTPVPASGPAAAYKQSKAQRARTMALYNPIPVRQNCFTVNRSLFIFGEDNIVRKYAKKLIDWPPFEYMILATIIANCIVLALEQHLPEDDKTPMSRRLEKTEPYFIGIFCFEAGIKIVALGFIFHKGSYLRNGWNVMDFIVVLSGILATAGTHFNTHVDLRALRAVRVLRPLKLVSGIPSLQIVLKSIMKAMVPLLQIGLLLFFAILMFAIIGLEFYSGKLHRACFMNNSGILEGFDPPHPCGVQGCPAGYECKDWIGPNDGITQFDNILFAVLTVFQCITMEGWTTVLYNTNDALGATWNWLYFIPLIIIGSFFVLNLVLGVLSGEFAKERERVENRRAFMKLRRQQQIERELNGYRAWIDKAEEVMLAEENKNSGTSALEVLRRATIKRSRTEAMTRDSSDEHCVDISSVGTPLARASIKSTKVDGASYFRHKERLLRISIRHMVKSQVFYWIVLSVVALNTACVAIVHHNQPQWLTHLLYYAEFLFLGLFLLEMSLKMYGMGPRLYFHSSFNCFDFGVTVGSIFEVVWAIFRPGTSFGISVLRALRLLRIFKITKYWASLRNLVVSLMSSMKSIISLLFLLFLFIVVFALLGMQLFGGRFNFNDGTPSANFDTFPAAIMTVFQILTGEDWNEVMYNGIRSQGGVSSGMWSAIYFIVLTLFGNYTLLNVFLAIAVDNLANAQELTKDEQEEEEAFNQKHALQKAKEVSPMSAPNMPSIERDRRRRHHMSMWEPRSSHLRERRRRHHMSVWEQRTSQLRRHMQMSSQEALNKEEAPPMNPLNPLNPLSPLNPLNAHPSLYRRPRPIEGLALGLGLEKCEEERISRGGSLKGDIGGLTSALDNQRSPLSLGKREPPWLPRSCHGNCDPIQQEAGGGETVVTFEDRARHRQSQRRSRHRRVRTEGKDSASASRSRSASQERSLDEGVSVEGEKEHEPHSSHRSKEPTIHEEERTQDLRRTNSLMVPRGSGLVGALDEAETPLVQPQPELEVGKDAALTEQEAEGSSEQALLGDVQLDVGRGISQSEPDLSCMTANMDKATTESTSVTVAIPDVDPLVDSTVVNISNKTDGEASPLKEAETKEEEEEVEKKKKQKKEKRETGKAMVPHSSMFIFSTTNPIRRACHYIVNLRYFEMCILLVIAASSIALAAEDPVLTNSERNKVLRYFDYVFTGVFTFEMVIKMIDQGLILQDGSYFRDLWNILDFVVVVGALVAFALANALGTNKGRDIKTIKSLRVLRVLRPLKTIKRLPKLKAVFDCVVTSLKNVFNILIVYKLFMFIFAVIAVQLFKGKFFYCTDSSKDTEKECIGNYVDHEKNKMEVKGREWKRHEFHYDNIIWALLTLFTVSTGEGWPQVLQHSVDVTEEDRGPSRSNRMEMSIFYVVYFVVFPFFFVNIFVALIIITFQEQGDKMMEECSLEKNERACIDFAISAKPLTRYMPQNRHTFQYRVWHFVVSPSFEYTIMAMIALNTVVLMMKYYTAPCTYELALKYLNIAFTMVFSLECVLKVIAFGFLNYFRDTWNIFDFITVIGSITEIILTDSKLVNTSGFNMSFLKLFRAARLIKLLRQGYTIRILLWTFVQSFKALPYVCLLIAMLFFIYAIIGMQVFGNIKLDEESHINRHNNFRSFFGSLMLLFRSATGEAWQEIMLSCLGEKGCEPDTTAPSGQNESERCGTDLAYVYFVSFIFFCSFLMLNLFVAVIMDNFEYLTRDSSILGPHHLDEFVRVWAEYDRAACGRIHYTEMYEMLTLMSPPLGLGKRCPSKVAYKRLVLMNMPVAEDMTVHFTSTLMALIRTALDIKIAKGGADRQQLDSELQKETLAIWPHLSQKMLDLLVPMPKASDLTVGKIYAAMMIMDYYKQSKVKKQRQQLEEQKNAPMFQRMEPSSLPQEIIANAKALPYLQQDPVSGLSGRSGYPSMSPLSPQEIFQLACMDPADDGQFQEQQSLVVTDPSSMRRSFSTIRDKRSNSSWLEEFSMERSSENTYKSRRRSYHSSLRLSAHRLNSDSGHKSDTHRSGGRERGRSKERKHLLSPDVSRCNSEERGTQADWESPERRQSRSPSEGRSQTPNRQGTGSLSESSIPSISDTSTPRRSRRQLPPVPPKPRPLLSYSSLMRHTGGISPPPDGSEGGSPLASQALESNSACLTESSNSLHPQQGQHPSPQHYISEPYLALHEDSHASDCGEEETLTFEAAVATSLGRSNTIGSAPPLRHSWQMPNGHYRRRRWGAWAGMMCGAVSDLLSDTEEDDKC

SMILES strings stand for the structures.

T1 sequence (Q15878 whole entry, looked up): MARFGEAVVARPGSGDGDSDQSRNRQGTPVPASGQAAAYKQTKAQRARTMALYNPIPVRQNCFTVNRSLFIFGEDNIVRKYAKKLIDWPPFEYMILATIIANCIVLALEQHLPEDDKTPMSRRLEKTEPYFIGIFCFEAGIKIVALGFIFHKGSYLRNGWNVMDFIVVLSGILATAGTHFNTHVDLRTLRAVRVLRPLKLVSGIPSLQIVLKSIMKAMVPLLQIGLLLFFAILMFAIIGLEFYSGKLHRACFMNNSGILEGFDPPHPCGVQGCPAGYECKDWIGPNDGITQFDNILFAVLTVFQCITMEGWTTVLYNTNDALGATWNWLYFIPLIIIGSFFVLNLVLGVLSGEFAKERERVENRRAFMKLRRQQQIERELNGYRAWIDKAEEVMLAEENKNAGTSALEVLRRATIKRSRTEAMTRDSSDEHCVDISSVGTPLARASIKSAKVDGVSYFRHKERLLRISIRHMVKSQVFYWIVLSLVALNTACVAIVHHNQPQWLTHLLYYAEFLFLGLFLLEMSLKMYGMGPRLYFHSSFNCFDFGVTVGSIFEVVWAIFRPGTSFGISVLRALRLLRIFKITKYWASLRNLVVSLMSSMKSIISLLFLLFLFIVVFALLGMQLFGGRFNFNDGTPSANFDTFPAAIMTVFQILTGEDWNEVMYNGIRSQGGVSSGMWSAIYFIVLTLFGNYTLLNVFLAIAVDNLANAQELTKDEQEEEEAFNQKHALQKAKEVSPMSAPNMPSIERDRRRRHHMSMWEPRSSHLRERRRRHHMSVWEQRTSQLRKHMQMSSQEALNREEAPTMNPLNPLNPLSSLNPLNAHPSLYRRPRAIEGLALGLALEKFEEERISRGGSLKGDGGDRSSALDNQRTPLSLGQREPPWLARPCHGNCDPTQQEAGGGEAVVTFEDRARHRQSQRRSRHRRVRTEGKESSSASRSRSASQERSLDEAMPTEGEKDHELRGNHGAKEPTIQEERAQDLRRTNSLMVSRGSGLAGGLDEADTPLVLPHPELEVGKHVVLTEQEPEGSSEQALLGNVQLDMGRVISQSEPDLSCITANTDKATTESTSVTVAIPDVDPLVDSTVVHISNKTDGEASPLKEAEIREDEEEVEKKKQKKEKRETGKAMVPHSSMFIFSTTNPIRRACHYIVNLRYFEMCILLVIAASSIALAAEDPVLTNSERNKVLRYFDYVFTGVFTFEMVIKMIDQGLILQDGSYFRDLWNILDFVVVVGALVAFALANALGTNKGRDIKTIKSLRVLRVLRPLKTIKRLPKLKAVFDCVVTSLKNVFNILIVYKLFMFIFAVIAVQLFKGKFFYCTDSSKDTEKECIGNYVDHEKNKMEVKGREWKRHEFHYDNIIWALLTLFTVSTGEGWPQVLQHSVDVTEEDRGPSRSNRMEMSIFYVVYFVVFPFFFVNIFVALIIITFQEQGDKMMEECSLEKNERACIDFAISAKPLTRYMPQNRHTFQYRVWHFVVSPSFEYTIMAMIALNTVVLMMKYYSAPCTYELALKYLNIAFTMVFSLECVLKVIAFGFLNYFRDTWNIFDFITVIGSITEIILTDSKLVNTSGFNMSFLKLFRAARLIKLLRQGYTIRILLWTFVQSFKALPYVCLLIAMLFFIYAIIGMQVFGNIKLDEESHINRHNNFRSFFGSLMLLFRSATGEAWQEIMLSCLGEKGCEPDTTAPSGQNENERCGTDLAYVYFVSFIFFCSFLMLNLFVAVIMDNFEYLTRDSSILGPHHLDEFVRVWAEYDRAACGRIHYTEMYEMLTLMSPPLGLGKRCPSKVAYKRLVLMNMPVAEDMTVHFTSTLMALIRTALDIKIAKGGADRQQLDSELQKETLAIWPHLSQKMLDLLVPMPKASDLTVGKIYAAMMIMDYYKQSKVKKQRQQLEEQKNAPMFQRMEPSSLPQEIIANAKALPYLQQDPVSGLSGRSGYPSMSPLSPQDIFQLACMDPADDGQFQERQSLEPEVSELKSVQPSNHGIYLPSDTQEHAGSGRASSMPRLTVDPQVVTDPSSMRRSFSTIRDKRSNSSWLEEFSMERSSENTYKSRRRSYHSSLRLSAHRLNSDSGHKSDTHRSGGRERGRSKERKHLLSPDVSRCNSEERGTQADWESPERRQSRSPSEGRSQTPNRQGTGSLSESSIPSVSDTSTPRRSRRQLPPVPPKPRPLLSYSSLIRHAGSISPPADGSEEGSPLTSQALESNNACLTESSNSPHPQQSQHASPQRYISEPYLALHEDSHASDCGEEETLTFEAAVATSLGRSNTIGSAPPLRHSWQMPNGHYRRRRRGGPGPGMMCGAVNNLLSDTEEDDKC

In the case of `CN([C@H](c1ccc(Cl)cc1)C(F)(F)F)S(=O)(=O)c1ccc2nccn2c1` [Example 178, (R)—N-(1-(4-chlorophenyl)-2,2,2-trifluoroethyl)-N-methylimidazo[1,2-a]pyridine-6-sulfonamide], the values for the IC50 on Cav2.3 [1] and on Cav2.3 [2] were 380 nM and 178 nM, respectively.

Take `CCN(C(c1ccc(F)cc1)C(F)(F)F)S(=O)(=O)c1cncnc1` [Example 133, (R)—N-ethyl-N-(2,2,2-trifluoro-1-(4-fluorophenyl)ethyl)pyrimidine-5-sulfonamide]: the IC50 at Cav2.3 [1] was 148 nM. Also, the “Cav2.3 (pIC50)” value in the test on Human Cav2.3 channel is listed as 7.20.

With `CCN([C@H](c1ccc(F)cc1)C(F)(F)F)S(=O)(=O)c1cncc(C#N)c1` [Example 35, (R)-5-cyano-N-ethyl-N-(2,2,2-trifluoro-1-(4-fluorophenyl)ethyl)pyridine-3-sulfonamide], the “activity in the MES model” value with MES model of epilepsy is “active”. Also, the IC50 at Cav2.3 [1] is 46.8 nM. In addition, the “activity blocking R-type calcium current” value in test [3] is given as “active”. Besides, the “Cav2.3 (pIC50)” value in the test with Human Cav2.3 channel turned out to be 7.87.

As to `CCN(C(c1ccc(F)cc1)C(F)(F)F)S(=O)(=O)CC1CCOCC1` (centres unmarked) [Example 20, N-ethyl-1-(tetrahydro-2H-pyran-4-yl)-N-(2,2,2-trifluoro-1-(4-fluorophenyl)ethyl)methanesulfonamide], the values for the IC50 on Cav2.3 [1] and on Cav2.3 [2] were 708 nM and 794 nM, respectively.

For `CCN([C@H](c1ccc(F)cc1)C(F)(F)F)S(=O)(=O)c1ccc(C#N)s1` [Example 5, (R)-5-cyano-N-ethyl-N-(2,2,2-trifluoro-1-(4-fluorophenyl)ethyl)thiophene-2-sulfonamide], the IC50 at Cav2.3 [1] is 1350 nM. Moreover, the “Cav2.3 (pIC50)” value in the test on Human Cav2.3 channel was determined as 6.56.

With `CCN([C@H](c1ccc(F)cc1)C(F)(F)F)S(=O)(=O)C1CCOCC1` [Example 63, (R)—N-ethyl-N-(2,2,2-trifluoro-1-(4-fluorophenyl)ethyl)tetrahydro-2H-pyran-4-sulfonamide], the IC50 on Cav2.3 [1] was 302 nM. Also, the “Cav2.3 (pIC50)” value in the test with Human Cav2.3 channel was 6.92.

Take `CN([C@H](c1ccc(Cl)cc1)C(F)(F)F)S(=O)(=O)c1ccn2ncnc2c1` [Example 191, (R)—N-(1-(4-chlorophenyl)-2,2,2-trifluoroethyl)-N-methyl-[1,2,4]triazolo[1,5-a]pyridine-7-sulfonamide]: the IC50 on Cav2.3 [1] was 457 nM; at Cav2.3 [2] it was 145 nM.

For `CN([C@H](c1ccc(Cl)cc1)C(F)(F)F)S(=O)(=O)c1cncc(C#N)c1` [Example 171, (R)—N-(1-(4-chlorophenyl)-2,2,2-trifluoroethyl)-5-cyano-N-methylpyridine-3-sulfonamide], the values for the IC50 at Cav2.3 [1] and at Cav2.3 [2] were 132 nM and 25.7 nM, respectively.

Consider `CN([C@H](c1ccc(C(F)(F)F)cc1)C(F)(F)F)S(=O)(=O)c1cncc(C#N)c1` [Example 68, (R)-5-Cyano-N-methyl-N-(2,2,2-trifluoro-1-(4-(trifluoromethyl)phenyl)ethyl)pyridine-3-sulfonamide], for which the IC50 at Cav2.3 [1] is 72.4 nM; at Cav2.3 [2], 35.5 nM.

As to `CCN([C@@H](c1ccc(F)cc1)C(F)(F)F)S(=O)(=O)c1ccc(C)s1` [Example 9, (S)—N-ethyl-5-methyl-N-(2,2,2-trifluoro-1-(4-fluorophenyl)ethyl)thiophene-2-sulfonamide], at Cav2.3 [1], the IC50 was 1910 nM. Also, in the test on Human Cav2.3 channel, the “Cav2.3 (pIC50)” value is given as 5.16.

As to `CN([C@H](c1ccc(C(F)(F)F)cc1)C(F)(F)F)S(=O)(=O)c1cncnc1` [Example 172, (R)—N-methyl-N-(2,2,2-trifluoro-1-(4-(trifluoromethyl)phenyl)ethyl)pyrimidine-5-sulfonamide], the IC50 at Cav2.3 [1] is 295 nM. Moreover, the “Cav2.3 (pIC50)” value in the test with Human Cav2.3 channel turned out to be 7.23.

On to `Cc1ccc(S(=O)(=O)N(C)[C@H](c2ccc(F)cc2)C(F)(F)F)s1` [Example 13, (R)—N,5-dimethyl-N-(2,2,2-trifluoro-1-(4-fluorophenyl)ethyl)thiophene-2-sulfonamide], for which the IC50 on Cav2.3 [1] is 2570 nM. For the same compound, in the test with Human Cav2.3 channel, the “Cav2.3 (pIC50)” value is given as 5.41.

Regarding `CN(C(c1ccc(F)cc1)C(F)(F)F)S(=O)(=O)c1ccc(C#N)s1` (centres unmarked) [Example 2, 5-cyano-N-methyl-N-(2,2,2-trifluoro-1-(4-fluorophenyl)ethyl)thiophene-2-sulfonamide], the IC50 at Cav2.3 [1] is 1480 nM. The “Cav2.3 (pIC50)” value in the test on Human Cav2.3 channel was found to be 6.14.

With `CN([C@H](c1ccc(Cl)cc1)C(F)(F)F)S(=O)(=O)c1cncc(F)c1` [Example 220, (R)—N-(1-(4-chlorophenyl)-2,2,2-trifluoroethyl)-5-fluoro-N-methylpyridine-3-sulfonamide], the results for the IC50 at Cav2.3 [1] and on Cav2.3 [2] were 141 nM and 30.2 nM, respectively.

Turning to `CCN([C@@H](c1ccc(F)cc1)C(F)(F)F)S(=O)(=O)c1ccc(C#N)s1` [Example 4, (S)-5-cyano-N-ethyl-N-(2,2,2-trifluoro-1-(4-fluorophenyl)ethyl)thiophene-2-sulfonamide], the IC50 at Cav2.3 [1] is 447 nM. In the test on Human Cav2.3 channel, the “Cav2.3 (pIC50)” value is 5.30.
